From PMC4284807, “Activation of RidA chaperone function by N-chlorination” (Nature Communications, 2014)

Legend:
RidA (untreated) = target: T1, RidA (untreated) (Escherichia coli, UniProt P0AF93); experiment: fluorescence titration of dye with protein; assay type: binding; details: protein varied 1-200 μM, 0.2 μM dye, 40 mM HEPES-KOH pH 7.4, emission 613 nm, hydrophobicity probe
T1 construct: full-length recombinant RidA, 13,480 Da (fits loss of initiator Met), trimer; untreated
T1 sequence (P0AF93 2-128): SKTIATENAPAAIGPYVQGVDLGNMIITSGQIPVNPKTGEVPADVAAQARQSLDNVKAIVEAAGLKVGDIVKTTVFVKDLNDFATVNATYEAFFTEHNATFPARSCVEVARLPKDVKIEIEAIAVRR

IlvA = target: T2, IlvA (Escherichia coli, UniProt P04968); experiment: alpha-ketobutyrate formation at […] nm; assay type: biochemical; details: 10 mM threonine, 0.9 μM IlvA, MES/HEPES/TAPS pH 7.5, 20 °C; accelerated by untreated RidA
T2 sequence (P04968 1-514): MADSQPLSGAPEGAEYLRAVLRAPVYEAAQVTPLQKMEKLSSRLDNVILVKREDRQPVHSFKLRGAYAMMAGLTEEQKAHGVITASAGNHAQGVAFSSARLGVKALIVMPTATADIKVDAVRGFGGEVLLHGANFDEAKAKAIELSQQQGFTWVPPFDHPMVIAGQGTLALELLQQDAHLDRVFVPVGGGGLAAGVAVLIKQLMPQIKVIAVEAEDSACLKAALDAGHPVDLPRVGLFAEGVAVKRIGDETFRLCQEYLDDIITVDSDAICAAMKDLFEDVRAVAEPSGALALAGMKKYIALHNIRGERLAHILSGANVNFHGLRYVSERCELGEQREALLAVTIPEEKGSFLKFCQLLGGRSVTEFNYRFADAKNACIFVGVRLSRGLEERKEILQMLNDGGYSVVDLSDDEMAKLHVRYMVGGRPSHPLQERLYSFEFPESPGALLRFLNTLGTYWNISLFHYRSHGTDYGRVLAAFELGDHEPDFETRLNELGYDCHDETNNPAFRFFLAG

[1] = target: the molecule itself; experiment: SEC; analytical gel filtration, Superdex 75 10/300 GL, flow rate 0.5 ml min^-1; untreated RidA or RidA treated with a 10-fold excess of HOCl for 5 min at 37 °C (HOCl removed)

CCN(CC)c1ccc2nc3c4ccccc4c(=O)cc-3oc2c1 [Nile red]
Kd (RidA (untreated)): 121 µM

C[C@@H](O)[C@H](N)C(=O)O [threonine]
alpha-ketobutyrate formation at 230 nm (IlvA): α-ketobutyrate generation from threonine catalysed by threonine deaminase IlvA

B1: E. coli RidA, untreated (natural protein, UniProt P0AF93 1-128, looked up)
chain: MSKTIATENAPAAIGPYVQGVDLGNMIITSGQIPVNPKTGEVPADVAAQARQSLDNVKAIVEAAGLKVGDIVKTTVFVKDLNDFATVNATYEAFFTEHNATFPARSCVEVARLPKDVKIEIEAIAVRR
notes: RidA of Escherichia coli, member of the YjgF/YER057c/UK114 family; mass of the unmodified full-length protein printed as 13,480 Da; The printed mass of 13,480 Da may mean that the first methionine is missing (surmise); also called RidA-UT; untreated RidA
stoichiometry N [1]: 3

B2: HOCl-treated RidA (RidA_(HOCl)) (natural protein, E. coli, UniProt P0AF93 1-128, looked up)
chain: MSKTIATENAPAAIGPYVQGVDLGNMIITSGQIPVNPKTGEVPADVAAQARQSLDNVKAIVEAAGLKVGDIVKTTVFVKDLNDFATVNATYEAFFTEHNATFPARSCVEVARLPKDVKIEIEAIAVRR
modifications: N-chlorinated: up to seven chlorine atoms added (positions not mapped); up to five oxygen atoms added to methionine and cysteine residues
notes: RidA of Escherichia coli, treated with HOCl; The chlorinated residues are not identified; the authors suspect lysine, arginine and the N-terminus; also called N-chlorinated RidA; source: HOCl removed with Micro Bio-Spin columns
binding result [1]: binds
